Activity calls are given as the source filed them. The rule behind the calls is not given here.
How the values were obtained:
[1] = target: T1, Receptor-type tyrosine-protein phosphatase epsilon (Homo sapiens, UniProt P23469); assay: Inhibition of recombinant human cytosolic PTPepsilon expressed in Escherichia coli BL21 (DE3) using E527-P-Q-pY530-Q-P-G-E-N-L536 as substrate after 60 mins by malachite green assay
Osteoclast [2] = assay: Cytotoxicity against human monocyte-derived osteoclasts assessed as effect on cell viability at 2 to 17 uM by formazan-based spectrometric method
Osteoclast [3] = assay: Effect on relative level of total c-Src/beta-actin in human monocyte-derived osteoclasts at 17 uM after 15 mins in presence of M-CSF/RANKL by Western blot method relative to control; assay type: cell-based; settings: 0.25 h
[4] = target: T1, Receptor-type tyrosine-protein phosphatase epsilon; assay: Inhibition of cytosolic PTPepsilon in human monocyte-derived osteoclasts assessed as disruption of podosome organization at 17 uM after 4 days in presence of M-CSF/RANKL by DAPI staining-based immunofluorescence assay
[5] = target: T1, Receptor-type tyrosine-protein phosphatase epsilon; assay: Inhibition of cytosolic PTPepsilon in human monocyte-derived osteoclasts assessed as relative level of Tyr530 phosphorylated c-Src/beta actin at 17 uM after 15 mins in presence of M-CSF/RANKL by Western blot method relative to control
Monocyte = assay: Inhibition of RANKL-induced human monocytes differentiation into osteoclasts after 4 days in presence of M-CSF by tartrate-resistant acid phosphatase staining based assay; assay type: functional, cell-based

T1 sequence (P23469 whole entry): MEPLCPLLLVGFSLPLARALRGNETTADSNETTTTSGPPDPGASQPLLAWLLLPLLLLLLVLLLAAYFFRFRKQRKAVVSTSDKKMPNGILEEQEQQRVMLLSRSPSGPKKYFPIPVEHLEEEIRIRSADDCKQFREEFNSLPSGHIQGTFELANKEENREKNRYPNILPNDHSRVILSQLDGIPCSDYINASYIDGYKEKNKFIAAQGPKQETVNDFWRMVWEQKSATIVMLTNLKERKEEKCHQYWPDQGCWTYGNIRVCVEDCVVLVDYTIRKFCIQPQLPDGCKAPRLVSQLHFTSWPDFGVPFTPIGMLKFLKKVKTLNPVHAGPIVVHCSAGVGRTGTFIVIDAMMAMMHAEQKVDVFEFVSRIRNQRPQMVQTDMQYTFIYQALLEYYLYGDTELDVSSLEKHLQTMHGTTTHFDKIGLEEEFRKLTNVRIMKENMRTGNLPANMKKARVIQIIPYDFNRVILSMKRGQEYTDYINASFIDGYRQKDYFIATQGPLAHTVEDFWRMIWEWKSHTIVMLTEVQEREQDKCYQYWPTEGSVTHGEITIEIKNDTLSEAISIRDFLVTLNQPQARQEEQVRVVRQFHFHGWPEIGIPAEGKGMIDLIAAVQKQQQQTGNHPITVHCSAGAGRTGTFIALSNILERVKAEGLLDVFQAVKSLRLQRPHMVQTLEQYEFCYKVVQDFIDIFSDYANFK

Row | IC50 [1] | fold change (FC) (Osteoclast [3]) | inhibition [4] | fold change (FC) [5] | inhibition (Monocyte) | SMILES | Activity (Osteoclast [2])
1 | 4170 nM | – | – | – | – | CCC(C)c1ccc(OCc2nnc(NC(=O)Nc3ccccc3OC)s2)cc1 (stereo not given) | –
2 | 3700 nM | – | – | – | – | COc1ccccc1OCC(=O)Nc1nnc(COc2ccccc2)s1 | –
3 | 1860 nM | 1.29 | Active | 1.57 | Dose-dependent effect | Cc1ccc(OCc2nnc(NC(=O)Nc3ccc(F)c(Cl)c3)s2)c(C)c1 | Non-Toxic
4 | 2470 nM | 1.12 | Active | 1.87 | Dose-dependent effect | Cc1ccc(NC(=O)Nc2nnc(COc3ccc(C)cc3C)s2)cc1 | Non-Toxic
5 | 2010 nM | – | – | – | – | O=C(COc1ccc2c(c1)OCO2)Nc1nnc(COc2ccc(Cl)cc2)s1 | –

Source: ChEMBL document CHEMBL4152370, “Identification of N-(5-(phenoxymethyl)-1,3,4-thiadiazol-2-yl)acetamide derivatives as novel protein tyrosine phosphatase epsilon inhibitors exhibiting anti-osteoclastic activity” (Bioorg Med Chem, 2018)
